Source: patent US8816052B2, “Mutant apoprotein of photoprotein with low calcium sensitivity” (JNC Corporation, priority 2011, dated 2014)

T1: Native Aequorin (Aequorea victoria, UniProt P02592)
T1 construct: His tag (from the vector name piP-His-HE); made in house
T1 sequence (P02592 9-196 limits assumed): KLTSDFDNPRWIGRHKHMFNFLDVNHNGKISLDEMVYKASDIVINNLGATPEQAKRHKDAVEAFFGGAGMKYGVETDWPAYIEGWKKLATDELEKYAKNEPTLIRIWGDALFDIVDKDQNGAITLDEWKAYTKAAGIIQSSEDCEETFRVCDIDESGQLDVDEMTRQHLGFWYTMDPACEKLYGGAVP

B1: pAM2 + X: aequorin expressed with vector pAM2+X; EF hand loop [I] DVNHNGKISLDE (SEQ ID NO: 13); native aequorin reference (protein)
chain: MTMITPSCKLTSDFDNPRWIGRHKHMFNFLDVNHNGKISLDEMVYKASDIVINNLGATPEQAKRHKDAVEAFFGGAGMKYGVETDWPAYIEGWKKLATDELEKYAKNEPTLIRIWGDALFDIVDKDQNGAITLDEWKAYTKAAGIIQSSEDCEETFRVCDIDESGQLDVDEMTRQHLGFWYTMDPACEKLYGGAVP

Experiments:
Type in all cases: biochemical
Native Aequorin = biological target: T1, Native Aequorin; assay: Substrate specificity: semi-synthetic aequorin from coelenterazine analogue and purified apoaequorin; details: for Luminescence Intensity for 60 Secs: CTZ = 100; for Relative Luminescence Intensity: CTZ = 100, 50 mM calcium solution
Method: (§1) AM20 was prepared to examine the properties. Specifically, 1 ml of 30 mM Tris-HCl (pH 7.6) containing 10 mM EDTA was mixed with 2-mercaptoethanol (1 μl) and a solution of the coelenterazine analogue (1 μg/μl) dissolved in ethanol. Then, 10 μl of the purified apoaequorin or recombinant mutant apoaequorin AM20 was added to the mixture, which was allowed to stand on ice (4° C.) for 5 hours to perform the regeneration reaction. […] The half decay time was determined from the luminescence patterns.

Mutant Aequorin AM20 = biological target: T2, Mutant Aequorin AM20 (Aequorea victoria, UniProt P02592, H34Q/K37A/N33D/S39T/V32K); details: for Half Decay Time / Luminescence Intensity for 60 Secs / Relative Luminescence Intensity: Mutant Aequorin AM20; for Luminescence Intensity for 60 Secs / Relative Luminescence Intensity: CTZ = 100; for Relative Luminescence Intensity: 50 mM calcium solution; for half decay time of the luminescence of the semi-synthetic aequorin: analogue as light-emitting substrate, statement in words
T2 construct: OmpA secretory signal peptide (N); histidine tag (N); made in house; host or cells: Escherichia coli strain WA802
Method: as §1

[1] = Luminescence activity and half decay time of mutant aequorins regenerated from E. coli extracts; details: E. coli JM83 extract regenerated with coelenterazine, final calcium 25 mM
Method: To express in Escherichia coli the mutant apoaequorin expression vector having the replaced other EF hand loop sequence which was constructed in (2) above, the mutant apoaequorin expression vector was transfected to Escherichia coli JM83 in a conventional manner. The transformants obtained were inoculated into 10 ml of LB liquid medium (10 g of bacto-tryptone, 5 g of yeast extract and 5 g of sodium chloride, per liter of water, pH 7.2) containing ampicillin (50 μg/ml) and cultured at 37° C. for 18 hours. […] Subsequently, 2-mercaptoethanol (1 μl) (manufactured by Wako Pure Chemical Industry) and a solution of substrate coelenterazine in ethanol (1 μg/μl) (JNC Corporation, hereinafter the same) were mixed with the recombinant mutant apoaequorin extract. The mixture was allowed to stand on ice (4° C.) for 18 hours thereby to regenerate into the mutant aequorin. […] The final calcium level in the reaction solution was 25 mM. The luminescence activity was expressed by relative activity (%) to the maximum intensity (Imax).

T2 sequence (P02592 9-196 V32K/N33D/H34Q/K37A/S39T): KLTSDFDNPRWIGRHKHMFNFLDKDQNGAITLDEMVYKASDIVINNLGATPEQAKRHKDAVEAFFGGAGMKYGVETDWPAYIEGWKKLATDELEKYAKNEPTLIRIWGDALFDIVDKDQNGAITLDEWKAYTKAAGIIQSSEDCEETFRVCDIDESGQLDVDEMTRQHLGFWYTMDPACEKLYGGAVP

Row | Molecule | Half Decay Time (Native Aequorin) [s] | Luminescence Intensity for 60 Secs (Native Aequorin) [%] | Relative Luminescence Intensity (Native Aequorin) [%] | Half Decay Time (Mutant Aequorin AM20) [s] | Luminescence Intensity for 60 Secs (Mutant Aequorin AM20) [%] | Relative Luminescence Intensity (Mutant Aequorin AM20) [%] | half decay time of the luminescence of the semi-synthetic aequorin (Mutant Aequorin AM20) | Relative Luminescence Activity ([1]; 50 mM calcium solution added, measured 30 seconds, relative to maximum intensity (Imax)) [%] | Half Decay Time ([1]; time until luminescence reaches half of maximum intensity) [s]
1 | O=c1c(Cc2cccc(O)c2)nc2c(Cc3ccccc3)[nH]c(-c3ccc(O)cc3)cn1-2 [3iso-CTZ, 3iso-coelenterazine] | 0.24 | 13.4 | 51.6 | 0.66 | 9.2 | 224 | – | – | –
2 | Cc1cccc(Cc2nc3c(Cc4ccccc4)[nH]c(-c4ccc(O)cc4)cn-3c2=O)c1 [3me-CTZ, 3me-coelenterazine] | 0.51 | 21.2 | 35.0 | 3.69 | 35.5 | 125 | – | – | –
3 | COc1cccc(Cc2nc3c(Cc4ccccc4)[nH]c(-c4ccc(O)cc4)cn-3c2=O)c1 [3meo-CTZ, 3meo-coelenterazine] | 0.52 | 35.6 | 64.9 | 1.43 | 25.0 | 266 | – | – | –
4 | Oc1ccc(Cc2nc3c(Cc4ccccc4)nc(-c4ccc(O)cc4)cn3c2O)cc1 [CTZ, coelenterazine] | 0.81 | 100 | 100 | 14.12 | 100 | 100 | – | – | –
5 | O=c1c(Cc2ccc(C(F)(F)F)cc2)nc2c(Cc3ccccc3)[nH]c(-c3ccc(O)cc3)cn1-2 [cf3-CTZ, cf3-coelenterazine] | 5.95 | 48.6 | 6.3 | >60 | 18.6 | 7.5 | extremely prolonged | – | –
6 | Oc1ccc(-c2cn3c(O)c(Cc4ccccc4)nc3c(Cc3ccccc3)n2)cc1 [h-CTZ, h-coelenterazine] | 0.69 | 70.1 | 87.9 | 2.98 | 45.4 | 220 | – | – | –
7 | O=c1c(Cc2ccccc2)nc2c(CC3CCCC3)[nH]c(-c3ccc(O)cc3)cn1-2 [hcp-CTZ, hcp-coelenterazine] | 0.51 | 14.3 | 20.5 | 0.61 | 7.6 | 187 | – | – | –
8 | Cc1ccc(Cc2nc3c(Cc4ccccc4)[nH]c(-c4ccc(O)cc4)cn-3c2=O)cc1 [me-CTZ, me-coelenterazine] | 5.00 | 45.0 | 5.8 | >60 | 15.4 | 6.8 | extremely prolonged | – | –
9 | COc1ccc(Cc2nc3c(Cc4ccccc4)[nH]c(-c4ccc(O)cc4)cn-3c2=O)cc1 [meo-CTZ, meo-coelenterazine] | 1.63 | 60.1 | 22.3 | 18.35 | 35.6 | 26.6 | extremely prolonged | – | –
10 | Bis-coelenterazine [Bis-CTZ] | – | 0.0 | 0.0 | – | 0.0 | 0.0 | – | – | –
11 | ameh-coelenterazine [αmeh-CTZ] | 0.35 | 0.9 | 2.2 | 0.61 | 0.9 | 19.4 | – | – | –
12 | et-coelenterazine [et-CTZ] | 1.21 | 44.1 | 27.3 | 1.94 | 33.6 | 56.7 | – | – | –
13 | i-coelenterazine [i-CTZ] | 11.42 | 65.3 | 5.0 | >60 | 9.8 | 3.6 | extremely prolonged | – | –
14 | n-coelenterazine [n-CTZ] | 4.71 | 24.0 | 3.6 | 44.04 | 1.9 | 1.0 | extremely prolonged | – | –
15 | B1 | – | – | – | – | – | – | – | 100.0 | 1.3
